No end group written: not given here.
Legend:
E. coli = experiment: Bacterial growth inhibition by OD600 absorbance, E. coli; type: cell-based, E. coli (DH5-alpha); settings: peptide 10 μM, 24 hours at 37° C., OD 600 nm
Experimental: (§1) Antimicrobial activity of antimicrobial peptides was tested against the agricultural microbial pests A. tumefaciens, E. amylovora, E. coli, and X. citri, using OD absorbance measurement to detect bacterial growth.
(§2) Antimicrobial peptides were synthesized using solid phase peptide synthesis method and resuspended in 10% DMSO to a 1 mM stock concentration. The stock solution was aliquoted in cryovials and stored at −80° C.
(§3) An aliquot of 198 μl of the bacterial culture was added to each well in a 96-well plate and 2 μl of a 1 mM peptide stock solution was added to each well, for a final treatment concentration of 10 μM of a given peptide. Media only wells were included to control for contamination. The positive controls were 50 μg/ml oxytetracycline hydrochloride and 500 μg/ml streptomycin sulfate. A 0.1% DMSO treatment was included as a negative control.
(§4) An initial absorbance reading of the bacterial suspensions was taken at 600 nm. Then, the bacteria were grown in an incubator at 30° C. (A. tumefaciens, E. amylovora, X. citri) or 37° C. (E. coli) for 24 hours, after which the final absorbance reading was measured. Using the initial and final absorbance reading compared to negative and positive controls, the percent inhibition of the bacterial strain by given peptide treatment was determined.

E. amylovora = settings: 24 h, 10 μM
A. tumefaciens = settings: 24 h, 10 μM
X. citri = experiment: Bacterial growth inhibition by OD600 absorbance, X. citri; type: cell-based, X. citri subsp. citri (ATCC 49118); settings: peptide 10 μM, 24 hours at 30° C., OD 600 nm
Experimental: as §1, §2, §3, §4

Molecule | growth inhibition, E. coli (E. coli) [%] | growth inhibition, E. amylovora (E. amylovora) [%] | growth inhibition, A. tumefaciens (A. tumefaciens) [%] | growth inhibition, X. citri (X. citri) [%]
CC(C)C[C@H](NC(=O)[C@H](CCCCN)NC(=O)[C@H](C)NC(=O)[C@H](CC(C)C)NC(=O)[C@H](CCCCN)NC(=O)[C@H](CCCCN)NC(=O)[C@H](C)NC(=O)[C@H](CC(C)C)NC(=O)[C@H](CCCCN)NC(=O)[C@H](C)NC(=O)[C@H](CC(C)C)NC(=O)[C@H](CCCCN)NC(=O)[C@H](Cc1c[nH]cn1)NC(=O)[C@H](C)NC(=O)[C@@H](N)CC(=O)O)C(=O)N[C@@H](C)C(=O)N[C@@H](CCCCN)C(=O)O [compound 97] | <90 | <90 | <90 | <90
WKIKWKIKWKIK [compound 105] | <90 | <90 | <90 | <90
KLLLKWKLKLLK [compound 126] | <90 | <90 | <90 | <90
AMWKDVLKKIGTVALHAGKAALGAVADTISQ [compound 17] | <90 | <90 | 100.00 | 100.00
KKLLKLKLKWKK [compound 121] | <90 | <90 | <90 | 100.00
KRIVARIKAFLR [compound 130] | <90 | 100.00 | <90 | <90
KLLKQWPIGKLLKKLLKKLLK [compound 42] | 100.00 | <90 | 100.00 | 100.00
ALWKKLLKKLLKSAKKLG [compound 77] | 100.00 | 100.00 | 100.00 | 100.00
KLKKIWWIKVKK [compound 116] | <90 | <90 | <90 | <90
KWKSFLKTLKSPVKTVFYTALKPISS [compound 22] | 100.00 | 100.00 | 100.00 | 100.00
KKVVFKVKFK [compound 142] | <90 | <90 | <90 | <90
INLKKLAARIKKKI [compound 112] | <90 | <90 | <90 | 100.00
CC[C@H](C)[C@H](NC(=O)[C@H](CO)NC(=O)[C@H](CC(N)=O)NC(=O)[C@H](CC(C)C)NC(=O)[C@H](Cc1ccc(O)cc1)NC(=O)[C@H](CCCCN)NC(=O)[C@H](CCCCN)NC(=O)[C@@H](NC(=O)[C@H](C)NC(=O)[C@H](CCSC)NC(=O)[C@H](CCC(N)=O)NC(=O)[C@H](CCCCN)NC(=O)[C@H](CCCNC(=N)N)NC(=O)[C@H](CC(C)C)NC(=O)[C@H](CCCNC(=N)N)NC(=O)[C@@H](NC(=O)[C@H](Cc1ccc(O)cc1)NC(=O)[C@H](CC(N)=O)NC(=O)[C@H](CC(=O)O)NC(=O)[C@@H](NC(=O)[C@H](Cc1ccccc1)NC(=O)[C@@H](NC(=O)[C@H](C)NC(=O)[C@H](CC(=O)O)NC(=O)[C@H](CO)NC(=O)[C@@H](N)Cc1c[nH]cn1)C(C)C)[C@@H](C)O)[C@@H](C)O)C(C)C)C(=O)N[C@@H](CC(C)C)C(=O)N[C@@H](CC(N)=O)C(=O)O [compound 12] | <90 | <90 | <90 | 93.86
KKLTLWLTLKK [compound 140] | <90 | <90 | <90 | <90
YSLQMGATAIKQVKKLFKKKGG [compound 56] | <90 | <90 | <90 | <90
VRVKVRVKVRVK [compound 131] | 99.54 | 100.00 | <90 | <90
AKRLKKLAKKIWKWK [compound 92] | <90 | 99.93 | 99.87 | <90
ILKKIWKPIKKLF [compound 109] | <90 | <90 | <90 | <90
FKKLKKLFKKILKLK [compound 95] | <90 | 100.00 | 99.80 | <90
KKWRKWLAKKKKK [compound 101] | <90 | <90 | <90 | <90

Molecule | growth inhibition, E. coli (E. coli) [%] | growth inhibition, E. amylovora (E. amylovora) [%] | growth inhibition, A. tumefaciens (A. tumefaciens) [%] | growth inhibition, X. citri (X. citri) [%]
VRLRIRVRVIRK [compound 118] | 100.00 | 100.00 | 100.00 | 100.00
AKLKAYPLKAKLYP [compound 114] | <90 | <90 | <90 | <90
INWKKIKKKVAGML [compound 108] | <90 | 95.63 | <90 | 100.00
VKLVYPLKVKLYP [compound 119] | <90 | <90 | <90 | <90
KIKWILKYWKWS [compound 106] | <90 | <90 | <90 | <90
IGKLFKRIVQRILKFLRNL [compound 63] | 97.14 | <90 | <90 | <90
GWASSIGSILGKFAKGGAQAFLQPK [compound 44] | <90 | <90 | <90 | <90
KKPLLKKLLKKL [compound 133] | <90 | <90 | <90 | <90
FFHHIKRGIKHVGKTIHRLVTG [compound 38] | <90 | 100.00 | <90 | 100.00
FFHHIFRGIVHVGKTKHRLVTG [compound 37] | <90 | <90 | <90 | <90
RLSRIVVIRVSR [compound 132] | <90 | <90 | <90 | <90
FRIRVRVAKKFGKAFVGEIM [compound 64] | <90 | <90 | <90 | <90
INWLKIAKKVKGML [compound 111] | <90 | 100.00 | <90 | 100.00
ILKKLLKKVKSI [compound 136] | <90 | <90 | <90 | <90
KWKLFKKIGPGKFLHSAKKF [compound 60] | <90 | <90 | <90 | <90
FPFLKLSLKIPKSAIKSAIKRL [compound 1] | <90 | <90 | <90 | <90
KWKSFLKTFKSAKKTSLHTALKAISS [compound 26] | <90 | <90 | <90 | <90
FKVQNQHGQVVKIFHH [compound 89] | <90 | <90 | <90 | <90
GFWGKLWKPVKKAI [compound 107] | <90 | <90 | <90 | <90

From patent US20250381242A1 (INVAIO SCIENCES, INC., priority 2024, published 2025)
